According to article PMC7797062, “Structural basis for guide RNA trimming by RNase D ribonuclease in Trypanosoma brucei” (Nucleic Acids Research, 2020):

Experiments:
TbRND (RND-WT) = target: T1, TbRND (RND-WT) (Trypanosoma brucei, UniProt Q38DE2); test: X-ray crystal structure (soak of apo crystals); assay type: binding; conditions: 10 mM NMP and 10 mM MnCl2 soak, 10 min
T1 construct: gene Tb09.211.3670; residues 41-390 (N-terminal 40 residues with mitochondrial localization signal removed); codon-optimized gene; E. coli BL21(DE3); His-Sumo tag cut with Ulp1; monomer per asymmetric unit
T1 sequence (Q38DE2 41-390): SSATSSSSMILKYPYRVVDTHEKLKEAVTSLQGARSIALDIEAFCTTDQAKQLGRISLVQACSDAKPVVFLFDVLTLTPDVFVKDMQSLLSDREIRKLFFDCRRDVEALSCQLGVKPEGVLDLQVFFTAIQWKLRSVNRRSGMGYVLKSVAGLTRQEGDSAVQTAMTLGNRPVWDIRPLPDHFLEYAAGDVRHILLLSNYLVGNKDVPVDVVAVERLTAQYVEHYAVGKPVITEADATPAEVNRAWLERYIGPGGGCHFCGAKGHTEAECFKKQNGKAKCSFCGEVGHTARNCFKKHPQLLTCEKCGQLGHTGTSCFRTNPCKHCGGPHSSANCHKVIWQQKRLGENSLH

TbRND ΔZF_3-4 = TbRND ΔZF_3-4 (Trypanosoma brucei, UniProt Q38DE2 41-341); test: X-ray crystallography (1.77 A); Ca2+ (10 mM CaCl2), Zn2+; EMSA: 20 mM Tris-HCl pH 8.0, 200 mM NaCl, 2 mM DTT, 0.2 uM FAM-RNA, 1 h on ice; 6% native PAGE in 0.5x TBE at 4 C; conditions: protein: recombinant; tags: His-SUMO removed by Ulp1; single strand
RND-Exo = target: T2, RND-Exo (Trypanosoma brucei, UniProt Q38DE2 41-296); test: EMSA; no obvious shift up to 20 uM protein, 0.2 uM RNA; EMSA: 20 mM Tris-HCl pH 8.0, 200 mM NaCl, 2 mM DTT, 0.2 uM FAM-RNA, 1 h on ice; 6% native PAGE in 0.5x TBE at 4 C; conditions: protein: recombinant; tags: His-SUMO removed by Ulp1; label: 5'-FAM; single strand
T2 sequence: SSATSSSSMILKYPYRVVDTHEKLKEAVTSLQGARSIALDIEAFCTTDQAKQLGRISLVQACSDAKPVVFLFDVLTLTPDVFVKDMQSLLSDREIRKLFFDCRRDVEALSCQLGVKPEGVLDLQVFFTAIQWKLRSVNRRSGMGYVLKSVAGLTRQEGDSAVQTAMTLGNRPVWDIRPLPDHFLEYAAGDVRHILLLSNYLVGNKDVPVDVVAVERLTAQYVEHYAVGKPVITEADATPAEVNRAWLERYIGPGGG

For `Nc1ncnc2c1ncn2[C@@H]1O[C@H](COP(=O)(O)O)[C@@H](O)[C@H]1O` [AMP], the “X-ray crystal structure (soak of apo crystals)” value (shortened to “X-ray crystal structure”) (TbRND (RND-WT); site: R0 of Exo domain (none in ZF1 groove), b55 says ATP soaked crystals) was “one AMP was captured at the R0 site in the A-form structure”.

In the case of `Nc1ccn([C@@H]2O[C@H](COP(=O)(O)O)[C@@H](O)[C@H]2O)c(=O)n1` [CMP], the “X-ray crystal structure” value (TbRND (RND-WT); site: ZF1 groove, also R2 site of Exo domain) is reported as “one CMP nucleotide was bound in ZF1 groove”.

With `Nc1nc2c(ncn2[C@@H]2O[C@H](COP(=O)(O)O)[C@@H](O)[C@H]2O)c(=O)[nH]1` [GMP] the “X-ray crystal structure” value (TbRND (RND-WT); sites: R0 and R2 of Exo domain, ZF1 groove, ZF2 groove (Mn2+-dependent), 2.25 A) was “we observed two GMP molecules in the G-form structure”.

With `O=c1ccn([C@@H]2O[C@H](COP(=O)(O)O)[C@@H](O)[C@H]2O)c(=O)[nH]1` [UMP] the “X-ray crystal structure” value (TbRND (RND-WT); site: ZF1 groove) was “one well-defined UMP molecule was captured in the groove of ZF1”.

B1: RNA-12U (ssRNA)
RNA: UUUUUUUUUUUU
B1: binds (TbRND ΔZF_3-4).

B2: RNA1 (ssRNA)
RNA: AACUUGUUUUUUUU
B2: no binding (RND-Exo).
